How the values were obtained:
[1] = system: LNCaP human prostate cancer cells; experiment: TUNEL assay of cell death in LNCaP cells; type: cell-based; settings: 24 hrs, z-DEVD-fmk 50 μM
Excerpt: LNCaP human prostate cancer, DU145 human prostate cancer, PC3 human prostate cancer, MCF-7 human breast cancer, MDA-MB-231 human breast cancer, MDA-MB-468 human breast cancer, HT29 human colon cancer, K562 human myelogenous leukaemia, HepG2 human hepatoma, Hep3B human hepatoma, and LN229 human glioblastoma cancer cell lines were purchased from American Type Culture Collection (Manassas, Va.). OC24 human ascites ovarian cancer cell line was a generous gift from Dr. XXX (Johns Hopkins University, MD). LNCaP cell line was cultured in RPMI1640 medium supplemented with glucose (14 mM), pyruvate (1 mM), and fetal bovine serum (FBS) (10%). DU145 cell line was cultured in MEM supplemented with non-essential amino acids, glucose (21 mM), pyruvate (1 mM), and FBS (10%). PC3 cell line was cultured in F-12K medium supplemented with FBS (10%). MCF-7 cell line was cultured in DMEM supplemented with FBS (10%). OC24 cell line was cultured in RPMI1640 medium supplemented with FBS (10%) as suspension culture. MDA-MB-231 and 468 cell lines were cultured in Leibovitz's L15 medium supplemented with FBS (10%) under air. HT29 cell line was cultured in DMEM supplemented with glucose (25 mM) and FBS (10%). K562 cell line was cultured in RPMI1640 supplemented with FBS (10%). HepG2 and Hep3B cell lines were cultured in MEM supplemented with FBS (10%). LN229 cell line was cultured in DMEM supplemented with FBS (5%). […]

[2] = system: caspase-3 and 9; experiment: Western blotting of cleaved caspase-3 and 9 in LNCaP cells; type: cell-based, human; settings: 17 hrs, M4N 80 μM, etoposide 10 μM, rapamycin 10 μM, UCN-01 2 μM
Protocol: (§1) The sample volumes were adjusted by the total protein amount. Protein assay was performed by Bio-Rad Protein Assay (Bio-Rad Laboratories, Inc. Hercules, Calif.). The samples were resolved by the standard SDS-polyacrylamide gel electrophoresis and transferred to nitrocellulose membrane (Amersham Biosciences, Bjorkgatan, Sweden). The membranes were blocked with skim milk, and incubated with primary antibodies at 4° C. overnight and then with secondary antibody conjugated with horse radish peroxidase at room temperature for 2 hrs. The signals were detected by western blot chemiluminescence reagent plus (New England Nuclear Life Science Products, Boston, Mass.).
(§2) The efficacy of the combination treatment of M4N with three anticancer drugs, etoposide, rapamycin, and UCN-01 to induce cell death was examined for LNCaP human prostate cancer cells with TUNEL assay. We chose these anticancer drugs trying to diversify the mechanisms in which the anticancer drugs work (43-45). […] Additionally the effect of caspase-3 and 7 inhibitor, zDEVD-fmk on the cell death induced by the combination treatment was examined (FIG. 1E).

[3] = system: caspase-7; experiment: Enzymatic assay for caspase-7 in extracts of treated LNCaP cells; type: cell-based, human; settings: extracts of LNCaP cells treated for 13 hrs
Protocol: The enzymatic assay specific for caspase-7 was performed using a CaspSELECT caspase-7 immunoassay kit (BioVision, Mountain View, Calif.). This assay is based on the […] assay with DEVD-afc. Since DEVD-afc can be a substrate for either caspase-3 or 7, only caspase-7 is selected from cell extracts by anti-caspase-7 antibody which is coated on microtiter plates. Briefly the microtiter plates were coated with anti-caspase-7 antibody overnight at 4 C and blocked with a blocking solution for 30 minutes at room temperature. The cell extracts were applied to the microtiter plates. After washing the microtiter plates, the substrate […] was added to the plates and incubated for about three hours. The fluorescence was measured by a microtiter plate fluorescence reader Infinite 200 (Tecan, Switzerland).
as §2

[4] = system: caspase-7; experiment: Western blotting of caspase-7 cleavage in HepG2 cells; type: cell-based, human; settings: HepG2, 17 hrs; M4N 80 μM, etoposide 20 μM, rapamycin 20 μM, UCN-01 5 μM
Protocol: as §1
The effect of the combination treatments on cell death and autophagy was examined in two cell lines other than LNCaP cells.

[5] = system: LNCaP tumors; experiment: Nude mice orthotopically implanted with LNCaP tumors: life-span and lung metastasis; type: in vivo, nude (nu/nu) mice; settings: LNCaP tumor-bearing nude mice; lung sections, hematoxylin and eosin
Protocol: T-cell deficient male nude mice (nu/nu) were obtained from Charles River Laboratories (Wilmington, Mass.). […] For drug combinations (M4N/etoposide, M4N/rapamycin, and M4N/UCN-01), etoposide, rapamycin, or UCN-01 powder was further added to M4N in CPE 25/30 to make a final concentration of M4N (10 mg/ml) respectively with etoposide (4 mg/ml), rapamycin (3.75 mg/ml), or UCN-01 (884 g/ml) in CPE 25/30 formulation. These drugs were intravenously injected into the tail vein of mice at the daily dose of 0.1 ml per mouse. Therefore dosages of each injection were 1 mg/shot (for M4N), 0.4 mg/shot (for etoposide), 0.375 mg/shot (for rapamycin), and 88.4 μg/shot (for UCN-01). The drug injections were performed once every day; beginning at day 3 until day 31 after tumor inoculation for the combination treatment with either etoposide or rapamycin and until day 25 after tumor inoculation for the combination treatment with UCN-01. After this the drugs were injected once a week for etoposide/rapamycin combination treatment and once every three days until day 35 for UCN-01 combination treatment.
LNCaP cells growing subconfluently were collected into the tissue culture medium without fetal bovine serum and antibiotics. The cell concentration was adjusted by the same medium. […]

COC(=O)CC[C@H](NC(=O)[C@H](CC(=O)OC)NC(=O)OCc1ccccc1)C(=O)N[C@H](C(=O)N[C@@H](CC(=O)OC)C(=O)CF)C(C)C [zDEVD-fmk]
effect on TUNEL-positive cell death induced by the combination treatments [1]: inhibited a large portion of the cell death

COc1cc([C@@H]2c3cc4c(cc3[C@@H](O[C@@H]3O[C@@H]5CO[C@@H](C)O[C@H]5[C@H](O)[C@H]3O)[C@H]3COC(=O)[C@H]23)OCO4)cc(OC)c1O [etoposide]
expression of cleaved caspase-3 and 9 [2]: didn't induce the cleavage | caspase-7 activation (enzymatic activity) [3]: only a small amount | caspase-7 cleavage product [4]: small amount | mice with obvious lung metastasis (histology) [5]: 3 out of 5

Source: patent US9101567B2, “Suppression of cancer growth and metastasis using nordihydroguaiaretic acid derivatives with 7-hydroxystaurosporine” (The Johns Hopkins University, priority 2010, dated 2015)
